Source: patent US6737383B1, “Herbicidal oxadiazolidines” (priority 1999, dated 2004)

Columns and labels:
purple nutsedge = assay: Test B pre/postemergence purple nutsedge; assay type: in vivo, Cyperus rotundus
How it was run: (§1)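 Test chemicals in a non-phytotoxic solvent mixture with surfactant were sprayed preemergence onto planted seeds and postemergence onto plants 2 to 18 cm tall (1- to 4-leaf stage). After twelve to sixteen days in a greenhouse, injury was visually rated against untreated controls from 0 (no effect) to 10 (complete control).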

rice = assay: Test B flood test rice; assay type: in vivo, Oryza sativa
How it was run: (§2)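 Each value is a visual injury score relative to controls, with 10 meaning complete control and 0 no effect. Evaluation took place twelve to sixteen days after the 2-leaf-stage plants were treated and kept in the greenhouse.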

duck salad = assay: Test B flood test duck salad; assay type: in vivo, Heteranthera limosa
How it was run: as §2

corn = assay: Test B pre/postemergence corn; assay type: in vivo, Zea mays
How it was run: as §1

wheat = assay: Test B pre/postemergence wheat; assay type: in vivo, Triticum aestivum
How it was run: as §1

rape = assay: Test B pre/postemergence rape; assay type: in vivo, Brassica napus
How it was run: as §1

wild oat = assay: Test B pre/postemergence wild oat; assay type: in vivo, Avena fatua
How it was run: as §1

velvetleaf = assay: Test B pre/postemergence velvetleaf; assay type: in vivo, Abutilon theophrasti
How it was run: as §1

morningglory = assay: Test B pre/postemergence morningglory; assay type: in vivo, Ipomoea hederacea
How it was run: as §1

bedstraw = assay: Test B pre/postemergence bedstraw; assay type: in vivo, Galium aparine
How it was run: as §1

surinam grass = assay: Test B pre/postemergence surinam grass; assay type: in vivo, Brachiaria decumbens
How it was run: as §1

pigweed = assay: Test B pre/postemergence pigweed; assay type: in vivo, Amaranthus retroflexus
How it was run: as §1

blackgrass = assay: Test B pre/postemergence blackgrass; assay type: in vivo, Alopecurus myosuroides
How it was run: as §1

soybean = assay: Test B pre/postemergence soybean; assay type: in vivo, Glycine max
How it was run: as §1

giant foxtail = assay: Test B pre/postemergence giant foxtail; assay type: in vivo, Setaria faberii
How it was run: as §1

crabgrass = assay: Test B pre/postemergence crabgrass; assay type: in vivo, Digitaria sanguinalis
How it was run: as §1

[1] = Preemergence, Rate 62 g/ha, scale of 0 to 10 where 0 is no effect and 10 is complete control
[2] = Rate 62 g/ha, Postemergence, scale of 0 to 10 where 0 is no effect and 10 is complete control
[3] = Rate 125 g/ha, Postemergence, scale 0 to 10
[4] = Rate 500 g/ha, Postemergence, scale 0 to 10
[5] = Rate 62 g/ha, headed Pre-emergence (flood test species), scale 0 to 10 (0 no effect, 10 complete control)
[6] = Rate 125 g/ha, Pre-emergence, flood test species, scale 0 to 10 where 0 is no effect and 10 is complete control
[7] = Rate 250 g/ha, Pre-emergence, flood-test species, scale 0 to 10, 0 is no effect, 10 is complete control
[8] = Rate 500 g/ha, Pre-emergence, flood test species, scale 0 to 10 (0 no effect, 10 complete control)
[9] = Preemergence, Rate 250 g/ha, scale of 0 to 10 where 0 is no effect and 10 is complete control
[10] = Preemergence, Rate 500 g/ha, scale of 0 to 10 where 0 is no effect and 10 is complete control
[11] = Rate 125 g/ha, Preemergence, scale of 0 to 10 where 0 is no effect and 10 is complete control

CCOC(=O)C=CCn1c(=O)on(C(=O)N(c2ccc(F)cc2)C(C)C)c1=O [Compound 214]
7: Morningglory plant response rating (morningglory; [4])
4: Blackgrass plant response rating (blackgrass; [3]) | Plant response rating (0 to 10; 0 is no effect, 10 is complete control), Blackgrass (blackgrass; Rate 250 g/ha, Postemergence) | Plant response rating, Soybean (soybean; [10]) | Giant foxtail plant response rating (giant foxtail; [4]) | Plant response rating, Crabgrass (crabgrass; [10])
3: Plant response rating (0 to 10; 0 is no effect, 10 is complete control), Wheat (wheat; Rate 250 g/ha, Postemergence) | Plant response rating (0 to 10; 0 is no effect, 10 is complete control), Rape (rape; Rate 250 g/ha, Postemergence) | Rape plant response rating (rape; [4]) | Morningglory plant response rating (morningglory; [3]) | Redroot pigweed plant response rating (pigweed; [4]) | Blackgrass plant response rating (blackgrass; [9]) | Plant response rating, Blackgrass (blackgrass; [10]) | Plant response rating (0 to 10; 0 is no effect, 10 is complete control), Soybean (soybean; Rate 250 g/ha, Postemergence) | Soybean plant response rating (soybean; [4]) | Giant foxtail plant response rating (giant foxtail; [11]) | Crabgrass plant response rating (crabgrass; [3]) | Plant response rating (0 to 10; 0 is no effect, 10 is complete control), Crabgrass (crabgrass; Rate 250 g/ha, Postemergence)
6: Plant response rating (0 to 10; 0 is no effect, 10 is complete control), Morningglory (morningglory; Rate 250 g/ha, Postemergence) | Redroot pigweed plant response rating (pigweed; [9]) | Giant foxtail plant response rating (giant foxtail; [9]) | Plant response rating, Giant foxtail (giant foxtail; [10])
5: Blackgrass plant response rating (blackgrass; [4]) | Crabgrass plant response rating (crabgrass; [4])
8: Bedstraw plant response rating (bedstraw; [4])
9: Plant response rating, Redroot pigweed (pigweed; [10])
1: Plant response rating (0 to 10; 0 is no effect, 10 is complete control), Redroot pigweed (pigweed; Rate 250 g/ha, Postemergence) | Blackgrass plant response rating (blackgrass; [2]) | Soybean plant response rating (soybean; [3]) | Crabgrass plant response rating (crabgrass; [9]) | Crabgrass plant response rating (crabgrass; [2])
0: Nutsedge plant response rating (purple nutsedge; [1]) | Nutsedge plant response rating (purple nutsedge; [2]) | Nutsedge plant response rating (purple nutsedge; [3]) | Plant response rating (0 to 10; 0 is no effect, 10 is complete control), Nutsedge (purple nutsedge; Rate 250 g/ha, Postemergence) | Nutsedge plant response rating (purple nutsedge; [4]) | Rice plant response rating (rice; [5]) | Rice plant response rating (rice; [6]) | Rice plant response rating (rice; [7]) | Rice plant response rating (rice; [8]) | Ducksalad plant response rating (duck salad; [5]) | Ducksalad plant response rating (duck salad; [6]) | Ducksalad plant response rating (duck salad; [7]) | Ducksalad plant response rating (duck salad; [8]) | Corn plant response rating (corn; [1]) | Corn plant response rating (corn; [9]) | Plant response rating, Corn (corn; [10]) | Corn plant response rating (corn; [2]) | Corn plant response rating (corn; [3]) | Corn plant response rating (corn; [11]) | Plant response rating (0 to 10; 0 is no effect, 10 is complete control), Corn (corn; Rate 250 g/ha, Postemergence) | Corn plant response rating (corn; [4]) | Wheat plant response rating (wheat; [1]) | Wheat plant response rating (wheat; [9]) | Plant response rating, Wheat (wheat; [10]) | Wheat plant response rating (wheat; [2]) | Wheat plant response rating (wheat; [3]) | Wheat plant response rating (wheat; [11]) | Rape plant response rating (rape; [1]) | Rape plant response rating (rape; [9]) | Plant response rating, Rape (rape; [10]) | Rape plant response rating (rape; [2]) | Rape plant response rating (rape; [3]) | Rape plant response rating (rape; [11]) | Wild oats plant response rating (wild oat; [1]) | Wild oats plant response rating (wild oat; [9]) | Plant response rating, Wild oats (wild oat; [10]) | Wild oats plant response rating (wild oat; [2]) | Wild oats plant response rating (wild oat; [3]) | Wild oats plant response rating (wild oat; [11]) | Plant response rating (0 to 10; 0 is no effect, 10 is complete control), Wild oats (wild oat; Rate 250 g/ha, Postemergence) | Velvetleaf plant response rating (velvetleaf; [1]) | Velvetleaf plant response rating (velvetleaf; [9]) | Plant response rating, Velvetleaf (velvetleaf; [10]) | Velvetleaf plant response rating (velvetleaf; [2]) | Velvetleaf plant response rating (velvetleaf; [3]) | Velvetleaf plant response rating (velvetleaf; [11]) | Plant response rating (0 to 10; 0 is no effect, 10 is complete control), Velvetleaf (velvetleaf; Rate 250 g/ha, Postemergence) | Morningglory plant response rating (morningglory; [1]) | Morningglory plant response rating (morningglory; [9]) | Plant response rating, Morningglory (morningglory; [10]) | Morningglory plant response rating (morningglory; [11]) | Bedstraw plant response rating (bedstraw; [1]) | Bedstraw plant response rating (bedstraw; [9]) | Plant response rating, Bedstraw (bedstraw; [10]) | Bedstraw plant response rating (bedstraw; [2]) | Bedstraw plant response rating (bedstraw; [3]) | Bedstraw plant response rating (bedstraw; [11]) | B. signalgrass plant response rating (surinam grass; [1]) | B. signalgrass plant response rating (surinam grass; Preemergence, Rate 250 g/ha, scale 0 to 10, 0 is no effect, 10 is complete control) | Plant response rating, B. signalgrass (surinam grass; [10]) | B. signalgrass plant response rating (surinam grass; [2]) | B. signalgrass plant response rating (surinam grass; Rate 125 g/ha, Postemergence, scale 0 (no effect) to 10 (complete control)) | B. signalgrass plant response rating (surinam grass; [11]) | Plant response rating (0 to 10; 0 is no effect, 10 is complete control), B. signalgrass (surinam grass; Rate 250 g/ha, Postemergence) | B. signalgrass plant response rating (surinam grass; Rate 500 g/ha, Postemergence, scale 0 to 10, 0 no effect, 10 complete control) | Redroot pigweed plant response rating (pigweed; [1]) | Redroot pigweed plant response rating (pigweed; [2]) | Redroot pigweed plant response rating (pigweed; [3]) | Redroot pigweed plant response rating (pigweed; [11]) | Blackgrass plant response rating (blackgrass; [1]) | Soybean plant response rating (soybean; [1]) | Soybean plant response rating (soybean; [9]) | Soybean plant response rating (soybean; [2]) | Soybean plant response rating (soybean; [11]) | Giant foxtail plant response rating (giant foxtail; [2]) | Giant foxtail plant response rating (giant foxtail; [3]) | Plant response rating (0 to 10; 0 is no effect, 10 is complete control), Giant foxtail (giant foxtail; Rate 250 g/ha, Postemergence) | Crabgrass plant response rating (crabgrass; [1]) | Crabgrass plant response rating (crabgrass; [11])
2: Morningglory plant response rating (morningglory; [2]) | Plant response rating (0 to 10; 0 is no effect, 10 is complete control), Bedstraw (bedstraw; Rate 250 g/ha, Postemergence) | Giant foxtail plant response rating (giant foxtail; [1])
